Measured values: patent publication EP4417607A1, “HETEROCYCLIC COMPOUND AS SOS1 INHIBITOR AND USES THEREOF” (Nanjing Zaiming Pharmaceutical Co., Ltd., priority 2021, dated 2023)

Columns and labels:
[1] = Plasma protein binding rate by equilibrium dialysis; format: in vitro ADME; conditions: CD-1 mouse plasma, 1 µM compound, 6 h dialysis at 37 °C
Procedure: • 1. CD-1 mouse plasma (BioIVT) • 2. 96-well equilibrium dialysis plate (HTDialysis LLC, Gales Ferry, CT, HTD96B) and equilibrium dialysis membrane (MWCO 12-14K, #1101) • 3. Positive control compound warfarin • 4. ABI QTrap 5500 liquid chromatography-mass spectrometry system
• 1. Preparation of a buffer with a concentration of 100 mM sodium phosphate and 150 mM NaCl: an alkaline solution with a concentration of 14.2 g/L Na2HPO4 and 8.77 g/L NaCl was prepared with ultrapure water, and an acidic solution with a concentration of 12.0 g/L NaH2PO4 and 8.77 g/L NaCl was prepared with ultrapure water. The alkaline solution was titrated with the acidic solution until the pH was 7.4 to prepare a buffer with a concentration of 100 mM sodium phosphate and 150 mM NaCl. • 2. Preparation of a dialysis membrane: the dialysis membrane was soaked in ultrapure water for 60 min to separate the membrane into two pieces, then soaked with 20% ethanol for 20 min, and finally soaked with dialysis buffer for 20 min. • 3. Preparation of plasma: the frozen plasma was quickly thawed at room temperature and then centrifuged at 3,220 g at 4 °C for 10 min to remove clots, and the supernatant was collected to a new centrifuge tube. The pH of the plasma was measured and recorded. The plasma with pH 7-8 was used. • 4. Preparation of a plasma sample containing the compound: A 10 mM stock solution of the compound or the positive control compound was diluted with DMSO to give a 200 µM working solution. 3 µL of 200 µM of the compound working solution was added to 597 µL of mouse plasma to give a plasma sample with a final concentration of 1 µM. • 5. Equilibrium dialysis procedures: a dialysis device was assembled according to the instructions. […]
The peak areas of the compound on the buffer side and the plasma side were measured. The plasma protein binding rate of the compound was calculated by the following formula: [formula] %Binding rate = 1−%Free rate [formula]
All data were calculated by Microsoft Excel software. […]

CYP2D6 = target: T1, CYP2D6 (Homo sapiens, UniProt P10635); assay: CYP2D6 enzymatic activity inhibition in human liver microsomes; format: in vitro ADME; conditions: IC50, human liver microsome, substrate dextromethorphan
T1 construct: Human liver microsome (Corning 452117); tissue Corning 452117; host or cells: human liver microsomes
T1 sequence (P10635 whole entry): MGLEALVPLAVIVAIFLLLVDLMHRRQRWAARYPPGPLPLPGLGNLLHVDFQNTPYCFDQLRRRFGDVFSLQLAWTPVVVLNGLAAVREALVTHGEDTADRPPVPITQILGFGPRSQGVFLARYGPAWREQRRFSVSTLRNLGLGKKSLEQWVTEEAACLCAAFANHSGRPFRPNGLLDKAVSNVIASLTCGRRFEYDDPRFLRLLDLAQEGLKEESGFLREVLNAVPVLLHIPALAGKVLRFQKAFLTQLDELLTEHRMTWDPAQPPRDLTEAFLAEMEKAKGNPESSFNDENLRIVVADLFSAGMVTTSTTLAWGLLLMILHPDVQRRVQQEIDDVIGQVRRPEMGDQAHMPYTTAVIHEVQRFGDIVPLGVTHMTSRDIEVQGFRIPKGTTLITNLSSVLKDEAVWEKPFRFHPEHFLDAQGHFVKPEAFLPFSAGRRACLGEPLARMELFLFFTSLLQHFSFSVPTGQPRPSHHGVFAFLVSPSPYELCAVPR
Procedure: The inhibition of CYP2C9, CYP2D6, and CYP3A4 enzymatic activity by the compound of the present invention was determined using the following method. • I. Experimental materials and instruments • 1. Human liver microsome (Corning 452117) • 2. Na2HPO4 (Sigma SLBZ6180) • 3. KH2PO4 (Sigma SLBT6559) • 4. NADPH (Solarbio 705Y021) • […] • 6. Positive substrates diclofenac (Sigma SLBV3438), dextromethorphan (TRC 3-EDO-175-1), and midazolam (Cerilliant FE01161704) • 7. Positive inhibitors sulfaphenazole (D. Ehrenstorfer GmbH 109012), quinidine (TCI WEODL-RE), and ketoconazole (Sigma 100M1091V) • 7. AB Sciex Triple Quad 5500 liquid chromatography-mass spectrometry system • II. Procedures • 1. Preparation of 100 mM phosphate-buffered saline (PBS): 7.098 g Na2HPO4 was weighed. 500 mL pure water was added. The mixture was dissolved by sonication to give solution A. 3.400 g KH2PO4 was weighed. 250 mL pure water was added. The mixture was dissolved by sonication to give solution B. The solution A was placed in a stirrer, and the solution B was slowly added until the pH reached 7.4 to prepare the 100 mM PBS buffer. • 2. A 10 mM NADPH solution was prepared with a 100 mM PBS buffer. A 10 mM stock solution of the compound of the present invention was diluted with DMSO to give a compound working solution at a concentration of 200× (6000, 2000, 600, 200, 60, 20, and 0 µM). The positive inhibitor stock solution was diluted with DMSO to give a positive inhibitor working solution at a concentration of 200× (sulfaphenazole, 1000, 300, 100, 30, 10, 3, and 0 µM; quinidine/ketoconazole, 100, 30, 10, 3, 1, 0.3, and 0 µM). Substrate working solutions (120 µM diclofenac, 400 µM dextromethorphan, and 200 µM midazolam) at a concentration of 200× were prepared with water, acetonitrile, or acetonitrile/methanol. • 3. […]
The values were calculated by Excel XLfit 5.3.1.3 to obtain IC50 values for the compounds of the present invention against CYP2C9, CYP2D6, and CYP3A4 as shown in Table 8. […]

SMILES	%Binding rate [1] [%]	IC50 (CYP2D6) [µM]
[2H]C([2H])([2H])Oc1c(=O)n(C2(CF)CC2)cc2c(N[C@H](C)c3cccc(C(F)F)c3F)nc(C)nc12 [Example 23, (R)-4-((1-(3-(difluoromethyl)-2-fluorophenyl)ethyl)amino)-6-(1-(fluoromethyl)cyclopropyl)-8-(methoxy-d3)-2-methylpyrido[4,3-d]pyrimidine-7(6H)-one]	91.3	> 30
[2H][C@](C)(Nc1nc(C)nc2c(N3CCOCC3)c(=O)n(C3(CF)CC3)cc12)c1cccc(C(F)F)c1F [Example 55, (R)-4-((1-(3-(difluoromethyl)-2-fluorophenyl)ethyl-1-d)amino)-6-(1-(fluoromethyl)cyclopropyl)-2-methyl-8-morpholinylpyrido[4,3-d]pyrimidine-7(6H)-one]	95.7	> 30
Cc1nc(N[C@H](C)c2cccc(C(F)F)c2F)c2cn(C3(CF)CC3)c(=O)c(N3CCOC[C@@H]3C)c2n1 [Example 40, 4-(((R)-1-(3-(difluoromethyl)-2-fluorophenyl)ethyl)amino)-6-(1-(fluoromethyl)cyclopropyl)-2-methyl-8-((S)-3-methylmorpholine)pyrido[4,3-d]pyrimidine-7(6H)-one]	92.9	> 30
